Source: ChEMBL document CHEMBL5058564, “EUbOPEN Chemogenomics Library 2 (Incucyte)” (2022)

Columns and labels:
Type in all cases: toxicity, cell-based
Fibroblast = assay: Incucyte cell viability with human fibroblast; settings: 10 µM, compound concentration 10 uM
U2OS = assay: Incucyte cell viability with U2OS; settings: human, 10 µM, compound concentration 10 uM
HEK-293T = assay: Incucyte cell viability with HEK293T; settings: human, 10 µM, compound concentration 10 uM
[1] = 0 h, replicate number 2, timepoint 0 hours
[2] = 6 h, replicate number 1, timepoint 6 hours
[3] = 12 h, replicate number 1, timepoint 12 hours
[4] = 12 h, replicate number 2, timepoint 12 hours
[5] = 18 h, replicate number 1, timepoint 18 hours
[6] = 18 h, replicate number 2, timepoint 18 hours
[7] = 24 h, replicate number 1, timepoint 24 hours
[8] = 24 h, replicate number 2, timepoint 24 hours
[9] = 0 h, replicate number 1, timepoint 0 hours
[10] = 6 h, replicate number 2, timepoint 6 hours
Note: unitless GR value; below 1 slowed growth and below 0 cell loss.

## O=C(NCCO)c1cccc(-c2cc(Nc3ccc(OC(F)(F)F)cc3)ncn2)c1
Fibroblast; [1]
  Growth Rate: 0.6
Fibroblast; [2]
  Growth Rate: -0.91
Fibroblast; [3]
  Growth Rate: -0.72
Fibroblast; [4]
  Growth Rate: 0.04
Fibroblast; [5]
  Growth Rate: -0.61
Fibroblast; [6]
  Growth Rate: 0.03
Fibroblast; [7]
  Growth Rate: -0.55
Fibroblast; [8]
  Growth Rate: 0.06
U2OS; [9]
  Growth Rate: -0.12
U2OS; [1]
  Growth Rate: 0.42
U2OS; [2]
  Growth Rate: 0.49
U2OS; [10]
  Growth Rate: 1
U2OS; [3]
  Growth Rate: 0.52
U2OS; [4]
  Growth Rate: 0.83
U2OS; [5]
  Growth Rate: 0.47
U2OS; [6]
  Growth Rate: 0.99
U2OS; [7]
  Growth Rate: 0.79
U2OS; [8]
  Growth Rate: 0.91
HEK-293T; [2]
  Growth Rate: -0.41
HEK-293T; [10]
  Growth Rate: -0.4
HEK-293T; [3]
  Growth Rate: -0.19
HEK-293T; [4]
  Growth Rate: -0.13
HEK-293T; [5]
  Growth Rate: 0.05
HEK-293T; [6]
  Growth Rate: 0.17
HEK-293T; [7]
  Growth Rate: 0.15
HEK-293T; [8]
  Growth Rate: 0.26

## Cc1cc(O)c(-c2ccc([C@@H](C)CN(C)C)cc2)c2c1[nH]c(=O)c1sccc12
Fibroblast; [2]
  Growth Rate: -0.87
Fibroblast; [10]
  Growth Rate: -0.66
Fibroblast; [3]
  Growth Rate: -0.63
Fibroblast; [4]
  Growth Rate: -0.4
Fibroblast; [5]
  Growth Rate: -0.6
Fibroblast; [6]
  Growth Rate: -0.3
Fibroblast; [7]
  Growth Rate: -0.36
Fibroblast; [8]
  Growth Rate: -0.25
U2OS; [9]
  Growth Rate: -0.17
U2OS; [1]
  Growth Rate: 1
U2OS; [2]
  Growth Rate: 0.74
U2OS; [10]
  Growth Rate: 0.66
U2OS; [3]
  Growth Rate: 0.65
U2OS; [4]
  Growth Rate: 0.31
U2OS; [5]
  Growth Rate: 0.13
U2OS; [6]
  Growth Rate: 0.18
U2OS; [7]
  Growth Rate: 0.16
U2OS; [8]
  Growth Rate: 0.09
HEK-293T; [2]
  Growth Rate: -0.8
HEK-293T; [10]
  Growth Rate: -0.77
HEK-293T; [3]
  Growth Rate: -0.64
HEK-293T; [4]
  Growth Rate: -0.63
HEK-293T; [5]
  Growth Rate: -0.48
HEK-293T; [6]
  Growth Rate: -0.52
HEK-293T; [7]
  Growth Rate: -0.37
HEK-293T; [8]
  Growth Rate: -0.4

## C[C@@H](c1ccc(F)cc1)n1nnc2cnc3ccc(-c4ccc5ocnc5c4)cc3c21
Fibroblast; [9]
  Growth Rate: 0.92
U2OS; [9]
  Growth Rate: -0.51
U2OS; [1]
  Growth Rate: 0.33
U2OS; [4]
  Growth Rate: 0.94
U2OS; [5]
  Growth Rate: 0.75
U2OS; [6]
  Growth Rate: 0.83
U2OS; [7]
  Growth Rate: 0.51
U2OS; [8]
  Growth Rate: 0.82
HEK-293T; [2]
  Growth Rate: -0.12
HEK-293T; [10]
  Growth Rate: -0.31
HEK-293T; [3]
  Growth Rate: -0.11
HEK-293T; [4]
  Growth Rate: -0.14
HEK-293T; [5]
  Growth Rate: 0.09
HEK-293T; [6]
  Growth Rate: 0.07
HEK-293T; [7]
  Growth Rate: 0.23
HEK-293T; [8]
  Growth Rate: 0.21

## CN(C)CCCOc1ccc(-c2cc(NCCCn3cccn3)nc(S(C)(=O)=O)n2)cc1
Fibroblast; [1]
  Growth Rate: 0.56
Fibroblast; [2]
  Growth Rate: 0.86
Fibroblast; [7]
  Growth Rate: 0.96
U2OS; [9]
  Growth Rate: 0.2
U2OS; [2]
  Growth Rate: 0.22
U2OS; [5]
  Growth Rate: 0.71
U2OS; [6]
  Growth Rate: 0.82
U2OS; [7]
  Growth Rate: 0.85
HEK-293T; [2]
  Growth Rate: 0.9
HEK-293T; [6]
  Growth Rate: 0.97
HEK-293T; [8]
  Growth Rate: 0.97

## CNCCN1CCC(c2cc(CN(C)C(=O)c3cccc(Oc4ccccc4)c3)ccn2)CC1
Fibroblast; [9]
  Growth Rate: 0.7
Fibroblast; [1]
  Growth Rate: 0.9
Fibroblast; [2]
  Growth Rate: 0.73
Fibroblast; [10]
  Growth Rate: 0.98
Fibroblast; [3]
  Growth Rate: 0.83
Fibroblast; [5]
  Growth Rate: 0.55
Fibroblast; [7]
  Growth Rate: 0.43
U2OS; [9]
  Growth Rate: -0.2
U2OS; [1]
  Growth Rate: 0.56
U2OS; [10]
  Growth Rate: 0.98
U2OS; [3]
  Growth Rate: 0.88
U2OS; [4]
  Growth Rate: 0.99
U2OS; [5]
  Growth Rate: 0.96
U2OS; [7]
  Growth Rate: 0.37
HEK-293T; [2]
  Growth Rate: 0.74
HEK-293T; [3]
  Growth Rate: 0.76
HEK-293T; [4]
  Growth Rate: 0.86
HEK-293T; [5]
  Growth Rate: 0.98
HEK-293T; [6]
  Growth Rate: 0.92
HEK-293T; [7]
  Growth Rate: 1
HEK-293T; [8]
  Growth Rate: 0.81
